# Where two headings read alike, the source gives them in different places.
# Tests used:
# [1] = system: individuals with obesity; assay: Example 2 study: adverse events; format: in vivo, human
# Source text: This study is designed to evaluate the safety, tolerability, PD and PK of dose to higher doses of Compound 1 in individuals with obesity. The Multiple Ascending Dose (MAD) study is a randomized, investigator- and participant-blind, placebo-controlled, multiple-ascending dose, single- or multi-site study conducted in individuals with obesity (i.e., females or males aged 18-70 years, inclusive, a BMI in the range of 27 kg/m^2 to 50 kg/m^2). Participants should have stable body weight for at least 3 months prior to the initiation of the study.
# Dose of Compound 1 is assessed with weekly dosing over 20 weeks in 2 cohorts. Each cohort comprises 12 patients-nine patients are administered Compound 1 and three patients are administered placebo.
# The dose for Cohort 1 is as follows: • 1.5 mg Compound 1 for 2 weeks; • 3.0 mg Compound 1 for 2 weeks; • 6.0 mg Compound 1 for 4 weeks; • 8.0 mg Compound 1 for 4 weeks; • 12.0 mg Compound 1 for 4 weeks; and • 16.0 mg Compound 1 for 4 weeks.
# The dose for Cohort 2 is as follows: • 2.0 mg Compound 1 for 3 weeks; • 4.0 mg Compound 1 for 3 weeks; • 6.0 mg Compound 1 for 3 weeks; • 8.0 mg Compound 1 for 3 weeks; • 10.0 mg Compound 1 for 2 weeks; • 13.0 mg Compound 1 for 2 weeks, and • 16.0 mg Compound 1 for 4 weeks.
# Safety parameters assessed during the study include: AEs (with special interest to GI AEs such as nausea, vomiting, and diarrhea), laboratory parameters, physical examinations/medical assessments, vital signs and ECGs, BW, injection site reactions, hypersensitivity reactions, and glucose monitoring (with special attention to hypoglycemia).
# [2] = human, in vivo
# Source text: (§1) Up to two samples may be collected at additional time points during the study if warranted and agreed upon between both the investigator and sponsor.
# (§2) All available PK data is utilized for model development.
# [3] = Example 1 study: pharmacokinetics, population PK modeling; conditions: for AUC(0-168)ss, geometric mean (CV %) / Cmax, ss, geometric mean: model-predicted steady state
# Source text: as §1, §2
# [4] = system: patients with T2DM; assay: Phase 1 multiple-ascending dose study in T2DM (Example 1): body weight, waist circumference, body composition; format: in vivo, human
# Source text: This study is a Phase 1, single-site, patient- and investigator-blinded, placebo controlled, randomized, non-crossover, multiple-ascending dose study with titration in each cohort in patients with T2DM to investigate the safety, tolerability, PK, and PD of the GLP-1/glucagon co-agonist peptide of SEQ ID NO:1 (Compound 1) administered as multiple SC injections QW for 12 weeks in Cohort 1 and 16 weeks in Cohort 2.
# The first dosing regimen (also referred to as Cohort 1) is 12 weeks in duration and requires dose increments of 1.5 mg starting from 1.5 mg: • 1.5 mg QW Compound 1 for 4 weeks; • 3.0 mg QW Compound 1 for 4 weeks; and • 4.5 mg QW Compound 1 for 4 weeks.
# The second dosing regimen (also referred to as Cohort 2) is 16 weeks in duration and requires dose increments of 2 mg starting from 2 mg: • 2 mg QW Compound 1 for 3 weeks; • 4 mg QW Compound 1 for 3 weeks; • 6 mg QW Compound 1 for 3 weeks; • 8 mg QW Compound 1 for 3 weeks; and • 10 mg QW Compound 1 for 4 weeks.
# In respect of each dosing regimen, Compound 1 is administered SC into the abdomen of the patient after an overnight fast for at least 8 hours.
# In respect of Cohort 1, body weight is measured at baseline and Days 1, 8, 15, 22, 29, 36, 43, 50, 57, 64, 71 and 78.
# Wherever possible, the same scale is used for all weight measurements throughout the study and the scale is not moved or recalibrated. Subjects are weighed in light clothing at approximately the same time in the morning before dosing (on Day 1 only) and after an overnight fast and evacuation of bowel and the bladder, if possible. During the treatment period, weight is measured twice on each scheduled occasion, with the subject stepping off the scale between measurements. The average of the two weight measurements is recorded in the source document.
# In respect of Cohort 1, waist circumference is measured at baseline and Days 1, 8, 15, 22, 29, 36, 43, 50, 57, 64, 71 and 78.
# Waist circumference is measured at the midpoint between the lower margin of the least palpable rib and the top of the iliac crest. The patient stands with feet close together, arms at the side and body weight evenly distributed, and should wear little clothing. The patient should be relaxed, and the measurements should be taken at the end of a normal expiration. During screening, baseline, the treatment period, and at follow-up, waist circumference will be measured twice on each scheduled occasion. The average of the two measurements will be recorded in the source document.
# [5] = Cohort 1 (1.5-4.5 mg QW), D78-80, baseline 59.0
# [6] = Cohort 1, escalated to 4.5 mg, Day 78
# [7] = Cohort 2 (2-10 mg QW), D106-108, baseline 60.1
# [8] = Cohort 2, Day 134 (after end of dosing)
# [9] = Cohort 2, Day 162 (after end of dosing)
# [10] = Cohort 2, escalated to 4.0 mg, Day 43
# [11] = Cohort 2, escalated to 6.0 mg, Day 64
# [12] = Cohort 2, escalated to 8.0 mg, Day 85
# [13] = Cohort 2, escalated to 10 mg, Day 109
smiles,measurement,setting,value
CC(C)C[C@H](NC(=O)[C@H](CC(C)C)NC(=O)[C@H](Cc1c[nH]c2ccccc12)NC(=O)[C@H](CCC(=O)O)NC(=O)[C@@H](NC(=O)[C@H](Cc1ccccc1)NC(=O)[C@H](CCC(=O)O)NC(=O)[C@H](CCCCNC(=O)COCCOCCNC(=O)COCCOCCNC(=O)CC[C@H](NC(=O)CCCCCCCCCCCCCCCCCCC(=O)O)C(=O)O)NC(=O)[C@H](C)NC(=O)[C@H](CCCCN)NC(=O)[C@H](CCCCN)NC(=O)[C@H](CCC(=O)O)NC(=O)[C@H](CC(=O)O)NC(=O)[C@H](CC(C)C)NC(=O)[C@H](Cc1ccc(O)cc1)NC(=O)[C@H](CCCCN)NC(=O)[C@H](CO)NC(=O)[C@H](Cc1ccc(O)cc1)NC(=O)[C@H](CC(=O)O)NC(=O)[C@H](CO)NC(=O)[C@@H](NC(=O)[C@H](Cc1ccccc1)NC(=O)[C@@H](NC(=O)CNC(=O)[C@H](CCC(N)=O)NC(=O)C(C)(C)NC(=O)[C@@H](N)Cc1c[nH]cn1)[C@@H](C)O)[C@@H](C)O)C(C)C)C(=O)N[C@@H](CCC(=O)O)C(=O)NCC(=O)NCC(=O)N1CCC[C@H]1C(=O)N[C@@H](CO)C(=O)N[C@@H](CO)C(=O)NCC(N)=O [Compound 1],deaths,[1]; Example 2 study,No deaths occurred
same,most common treatment-emergent adverse events,[1]; in vivo,"gastrointestinal in nature (nausea, vomiting, diarrhea)"
same,serious adverse events,[1]; in vivo,No serious adverse events were observed
same,"t1/2, geomean (range)",[2]; 4.5 mg,209 (117 to 362) h
same,"t1/2, geomean (range)",[2]; 10 mg,213 (129 to 366) h
same,"Apparent clearance, CL/F, population mean estimate",[2]; sc,0.0311 L/h
same,Vd/F,"[3]; human, plasma, sc",9.52 L
same,"AUC(0-168)ss, geometric mean (CV %)",[3]; 4.5 mg QW,106000 (22.5%) ng · h/mL
same,"Cmax, ss, geometric mean",[3]; 4.5 mg QW,698 ng/mL
same,"AUC(0-168)ss, geometric mean (CV %)",[3]; 10 mg QW,239000 (23.9%) ng · h/mL
same,"Cmax, ss, geometric mean",[3]; 10 mg QW,1570 ng/mL
same,"Absorption rate constant, KA, population mean estimate","[3]; population PK model, 355 concentrations from 18 patients, SC QW",0.0299 h⁻¹
same,Lean body Mass,[4]; [5],59.4 kg
same,Lean body mass,[4]; [5],59.4 kg
same,% Lean body mass,"[4]; Cohort 1 (1.5-4.5 mg QW), D78-80, baseline 60.9%",64.3%
same,Waist circumference,"[4]; Cohort 1 (1.5-4.5 mg QW), D78-80, baseline 110.4",105.7 cm
same,mean change from baseline in body weight,"[4]; Cohort 1 (1.5-4.5 mg QW), Day 78",−2.88 kg at Day 78
same,"body weight, mean percent change from baseline",[4]; [6],−3.03%
same,"waist circumference, approximate reduction from baseline",[4]; [6],~3%
same,mean body weight,"[4]; Cohort 1, escalated to 4.5 mg, Day 78, baseline 97.19",94.0 kg
same,mean waist circumference,"[4]; Cohort 1, escalated to 4.5 mg, Day 78, baseline 108.66",105.66 cm
same,Lean body Mass,[4]; [7],56.4 kg
same,Lean body mass,[4]; [7],56.4 kg
same,% Lean body mass,"[4]; Cohort 2 (2-10 mg QW), D106-108, baseline 63.0%",67.8%
same,Waist circumference,"[4]; Cohort 2 (2-10 mg QW), D106-108, baseline 108.6",96.7 cm
same,body weight decrease from baseline compared to placebo,"[4]; Cohort 2 (2-10 mg QW), Day 50 through Day 162",statistically significant decreases
same,mean change from baseline in body weight,"[4]; Cohort 2 (2-10 mg QW), Day 109",−10.73 kg at Day 109.
same,mean body weight,"[4]; Cohort 2, Day 134 (after end of 16 weeks dosing), baseline 94.9",84.05 kg
same,"body weight, mean percent change from baseline",[4]; [8],−11.14%
same,"waist circumference, approximate reduction from baseline",[4]; [8],~9%
same,mean waist circumference,"[4]; Cohort 2, Day 134 (after end of dosing), baseline 106.93",97.59 cm
same,"body weight, mean percent change from baseline",[4]; [9],−6.56%
same,"waist circumference, approximate reduction from baseline",[4]; [9],~4%
same,mean body weight,"[4]; Cohort 2, Day 162 (after end of dosing), baseline 94.9",88.96 kg
same,mean waist circumference,"[4]; Cohort 2, Day 162 (after end of dosing), baseline 106.93",102.79 cm
same,"body weight, mean percent change from baseline",[4]; [10],−4.04%
same,"waist circumference, approximate reduction from baseline",[4]; [10],~3%
same,mean body weight,"[4]; Cohort 2, escalated to 4.0 mg, Day 43, baseline 94.9",90.38 kg
same,mean waist circumference,"[4]; Cohort 2, escalated to 4.0 mg, Day 43, baseline 106.93",103.38 cm
same,"body weight, mean percent change from baseline",[4]; [11],−7.07%
same,"waist circumference, approximate reduction from baseline",[4]; [11],~5%
same,mean body weight,"[4]; Cohort 2, escalated to 6.0 mg, Day 64, baseline 94.9",87.69 kg
same,mean waist circumference,"[4]; Cohort 2, escalated to 6.0 mg, Day 64, baseline 106.93",101.31 cm
same,"body weight, mean percent change from baseline",[4]; [12],−9.05%
same,"waist circumference, approximate reduction from baseline",[4]; [12],~8%
same,mean body weight,"[4]; Cohort 2, escalated to 8.0 mg, Day 85, baseline 94.9",85.88 kg
same,mean waist circumference,"[4]; Cohort 2, escalated to 8.0 mg, Day 85, baseline 106.93",98.58 cm
same,"body weight, mean percent change from baseline",[4]; [13],−12.71%
same,"waist circumference, approximate reduction from baseline",[4]; [13],~10%
same,mean body weight,"[4]; Cohort 2, escalated to 10 mg, Day 109, baseline 94.9",82.55 kg
same,mean waist circumference,"[4]; Cohort 2, escalated to 10 mg, Day 109, baseline 106.93",96.56 cm
same,body weight reduction,[4]; dose 10 mg or greater,greater than 12%
same,body weight reduction,[4]; dose greater than 6 mg,greater than 9%
same,reduction in waist circumference,[4]; dose greater than 6.0 mg,greater than 5%

# Source: patent publication US20260248879A1, “METHODS OF USING A GCG/GLP1 CO-AGONIST FOR THERAPY” (ELI LILLY AND COMPANY, priority 2022, published 2026)
